# From ChEMBL document CHEMBL5055658, “Discovery of a Highly Potent and Selective Degrader Targeting Hematopoietic Prostaglandin D Synthase via In Silico Design” (J Med Chem, 2021)
# Calls of active or inactive are those of the source. No cut-off for these calls is given here.
# Assays:
# [1] = target: Hematopoietic prostaglandin D synthase (Homo sapiens, UniProt O60760); assay: Inhibition of H-PGDS (unknown origin) using fluorescent probe by competition binding assay
# KU812 [2] = assay: Suppression of PGD2 production in human KU812 cells measured in presence of compound 43 up to 3000 pM incubated for 6 hrs by LC-MS analysis; format: functional, cell-based
# [3] = target: T1, Protein cereblon/Hematopoietic prostaglandin D synthase (Homo sapiens, UniProt O60760+Q96SW2); assay: PROTAC activity at H-PGDS/CRBN in human KU812 cells assessed as H-PGDS degradation measured after 6 hrs by Western blot analysis; format: cell-based; details: for DC50: ku812 cell line
# [4] = target: T1, Protein cereblon/Hematopoietic prostaglandin D synthase; assay: PROTAC activity at H-PGDS/CRBN in human KU812 cells assessed as H-PGDS degradation measured after 24 hrs by Western blot analysis; format: cell-based; details: KU812 cell line
# Target sequence in this assay (O60760 whole entry, looked up): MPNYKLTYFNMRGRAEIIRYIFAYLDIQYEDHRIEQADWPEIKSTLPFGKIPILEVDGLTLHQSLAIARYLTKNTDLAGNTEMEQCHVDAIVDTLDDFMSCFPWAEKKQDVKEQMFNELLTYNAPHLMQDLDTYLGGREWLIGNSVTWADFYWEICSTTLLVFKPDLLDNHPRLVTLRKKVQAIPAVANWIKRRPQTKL
# Target sequence in this assay (Q96SW2 whole entry, looked up): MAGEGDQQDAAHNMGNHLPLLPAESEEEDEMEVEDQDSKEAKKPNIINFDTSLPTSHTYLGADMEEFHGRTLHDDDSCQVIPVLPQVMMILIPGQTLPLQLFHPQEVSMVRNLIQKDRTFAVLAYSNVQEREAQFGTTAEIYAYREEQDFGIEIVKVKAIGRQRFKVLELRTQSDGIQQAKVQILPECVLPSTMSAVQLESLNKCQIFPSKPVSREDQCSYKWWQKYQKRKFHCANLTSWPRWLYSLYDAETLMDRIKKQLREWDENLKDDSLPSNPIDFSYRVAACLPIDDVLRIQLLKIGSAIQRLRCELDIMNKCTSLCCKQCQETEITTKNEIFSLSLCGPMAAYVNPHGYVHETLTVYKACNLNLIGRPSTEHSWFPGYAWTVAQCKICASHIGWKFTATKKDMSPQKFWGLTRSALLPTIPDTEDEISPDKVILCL
# [5] = target: T1, Protein cereblon/Hematopoietic prostaglandin D synthase; assay: PROTAC activity at H-PGDS/CRBN in human MEG01s cells assessed as H-PGDS degradation measured after 6 to 24 hrs by Western blot analysis; format: cell-based; details: time 6-24 hrs
# Target sequence in this assay (O60760 whole entry, looked up): as the sequence (O60760 whole entry, looked up) above
# Target sequence in this assay (Q96SW2 whole entry, looked up): as the sequence (Q96SW2 whole entry, looked up) above
# KU812 [6] = assay: Effect on H-PGDS mRNA level in human KU812 cells measured up to 10000 pM incubated for 6 hrs by quantitative RT-PCR analysis; format: functional, cell-based
# [7] = target: T1, Protein cereblon/Hematopoietic prostaglandin D synthase; assay: PROTAC activity at H-PGDS/CRBN in human KU812 cells assessed as H-PGDS degradation in presence of pomalidomide measured after 6 hrs by Western blot analysis; format: cell-based; details: KU812 cell line
# Target sequence in this assay (O60760 whole entry, looked up): as the sequence (O60760 whole entry, looked up) above
# Target sequence in this assay (Q96SW2 whole entry, looked up): as the sequence (Q96SW2 whole entry, looked up) above
# [8] = target: T1, Protein cereblon/Hematopoietic prostaglandin D synthase; assay: PROTAC activity at H-PGDS/CRBN in human KU812 cells assessed as H-PGDS degradation in presence of MG132 at 100 pM measured after 6 hrs by Western blot analysis; format: cell-based; details: KU812 cell line
# Target sequence in this assay (O60760 whole entry, looked up): as the sequence (O60760 whole entry, looked up) above
# Target sequence in this assay (Q96SW2 whole entry, looked up): as the sequence (Q96SW2 whole entry, looked up) above
# [9] = target: T1, Protein cereblon/Hematopoietic prostaglandin D synthase; assay: PROTAC activity at H-PGDS/CRBN in human KU812 cells assessed as H-PGDS degradation in presence of MLN7243 at 100 pM measured after 6 hrs by Western blot analysis; format: cell-based; details: KU812 cell line
# Target sequence in this assay (O60760 whole entry, looked up): as the sequence (O60760 whole entry, looked up) above
# Target sequence in this assay (Q96SW2 whole entry, looked up): as the sequence (Q96SW2 whole entry, looked up) above
# [10] = target: T1, Protein cereblon/Hematopoietic prostaglandin D synthase; assay: PROTAC activity at H-PGDS/CRBN in human KU812 cells assessed as reduction in H-PGDS level at 100 pM measured after 6 hrs by Western blot analysis relative to control; format: cell-based; set-up: scale not given: the % may be the effect or the level left; details: KU812 cell line
# Target sequence in this assay (O60760 whole entry, looked up): as the sequence (O60760 whole entry, looked up) above
# Target sequence in this assay (Q96SW2 whole entry, looked up): as the sequence (Q96SW2 whole entry, looked up) above
# [11] = target: T1, Protein cereblon/Hematopoietic prostaglandin D synthase; assay: PROTAC activity at H-PGDS/CRBN in human KU812 cells assessed as reduction in H-PGDS level at 10 pM measured after 6 hrs by Western blot analysis relative to control; format: cell-based; set-up: scale not given: the % may be the effect or the level left; details: KU812 cell line
# Chain of Hematopoietic prostaglandin D synthase (O60760 whole entry): as the sequence (O60760 whole entry, looked up) above
Structure (SMILES),inhibition [1],Activity (KU812 [2]),DC50 [3],IC50 [1],other results
O=C1CCC(N2C(=O)c3cccc(NCCNC(=O)C4CCN(c5ccc(NC(=O)c6cnc(Oc7ccccc7)nc6)cc5)CC4)c3C2=O)C(=O)N1 (stereo not given),inactive,–,–,–,–
Nc1cccc2c1C(=O)N(C1CCC(=O)NC1=O)C2=O (stereo not given),–,inactive,–,–,–
O=C1CCC(N2C(=O)c3cccc(N4CCN(c5ccc(NC(=O)c6cnc(Oc7ccccc7)nc6)cc5)CC4)c3C2=O)C(=O)N1 (stereo not given),inactive,–,–,–,Activity ([3]; KU812 cell line): inactive
O=C1CCC(N2C(=O)c3cccc(N4CCN(C(=O)C5CCN(c6ccc(NC(=O)c7cnc(Oc8ccccc8)nc7)cc6)CC5)CC4)c3C2=O)C(=O)N1 (stereo not given),–,Active,0.0173 nM,170 nM,Activity [4]: inactive; Activity [5]: Active; Activity (KU812 [6]): inactive; Activity [7]: inactive; Activity [8]: inactive; Activity [9]: inactive; Activity [10]: 30.8%; Activity [11]: 12.9%
O=C(Nc1ccc(N2CCC(C(=O)N3CCOCC3)CC2)cc1)c1cnc(Oc2ccccc2)nc1,–,Active,–,170 nM,–
CN1C(=O)CCC(N2C(=O)c3cccc(N4CCN(C(=O)C5CCN(c6ccc(NC(=O)c7cnc(Oc8ccccc8)nc7)cc6)CC5)CC4)c3C2=O)C1=O (stereo not given),–,Active,0.024 nM,140 nM,–
